How the values were obtained:
[1] = Comparison of relative fluorescence quantum yield (absorption and fluorescence spectra of dye solutions); format: physicochemical; settings: for Absorption maximum (nm) / Fluorescence maximum (nm): ethanol solution of dye; for Fluorescence maximum (nm) / Relative fluorescence quantum yield: absorbance 0.1 at 620 nm; for Fluorescence maximum (nm): spectrum measured at 620 nm; for Relative fluorescence quantum yield: ethanol solution, area of fluorescence spectrum relative to Crystal Violet (Φf=0.54)
Description: Measurement and calculation of relative quantum yield were performed according to the method described in Journal of Chemical Society, Faraday Trans., 92, 4917-4925 (1996). The structures of the conventional cyanine dye used as comparative dyes are shown below.
(2) Fluorescence spectrum was measured at an […] wavelength of 620 nm.
(3) Area value of fluorescence spectrum was calculated.
(4) Relative value was calculated based on the area value of Crystal Violet of which absolute fluorescence quantum yield was known (Φf=0.54).

[2] = known value of the standard; cited from earlier work

| Absorption maximum (nm) [1] [nm] | Fluorescence maximum (nm) [1] [nm] | Relative fluorescence quantum yield [1] | Structure (SMILES) | absolute fluorescence quantum yield (Φf) [2] |
| --- | --- | --- | --- | --- |
| 651 | 672 | 0.63 | CC(CC[n+]1cc(C#Cc2ccc(N(CCCS(=O)(=O)[O-])S(C)(=O)=O)cc2)cc2c1N=C(/C=C/C=C1\N=C3C(=CC(C#Cc4ccc(N(CCCS(=O)(=O)[O-])S(C)(=O)=O)cc4)=CN3CCCCCC(=O)O)C1(C)C)C2(C)C)S(=O)(=O)[O-].[K+].[K+] (stereo not shown) [Compound I-11] | – |
| 650 | 671 | 0.62 | CC1(C)C2=CC(C#Cc3cccc(N(CCCS(=O)(=O)[O-])S(C)(=O)=O)c3)=CN(CCCCCC(=O)O)C2=N/C1=C\C=C\C1=Nc2c(cc(C#Cc3cccc(N(CCCS(=O)(=O)[O-])S(C)(=O)=O)c3)c[n+]2CCCS(=O)(=O)[O-])C1(C)C.[K+].[K+] [Compound I-12] | – |
| 651 | 672 | 0.63 | CC(CCN1C=C(C#Cc2ccc(N(CCCS(=O)(=O)[O-])S(C)(=O)=O)cc2)C=C2C1=N/C(=C\C=C\C1=Nc3c(cc(C#Cc4ccc(N(CCCCCC(=O)O)S(C)(=O)=O)cc4)c[n+]3CCC(C)S(=O)(=O)[O-])C1(C)C)C2(C)C)S(=O)(=O)[O-].[K+].[K+] (stereo not shown) [Compound I-13] | – |
| – | – | – | CN(C)c1ccc(C(=C2C=CC(=[N+](C)C)C=C2)c2ccc(N(C)C)cc2)cc1 [Crystal Violet] | 0.54 |

| Structure (SMILES) | Absorption maximum (nm) [1] [nm] | Fluorescence maximum (nm) [1] [nm] | Relative fluorescence quantum yield [1] | absolute fluorescence quantum yield (Φf) [2] |
| --- | --- | --- | --- | --- |
| CC[N+]1=C(/C=C/C=C/C=C2/N(CCCCCC(=O)O)c3ccc(S(=O)(=O)[O-])cc3C2(C)C)C(C)(C)c2cc(S(=O)(=O)[O-])ccc21.[K+] [compound 2, reference compound] | 645 | 664 | 0.27 | – |

— US6794509B1, “Compounds for fluorescence labeling” (Fuji Photo Film Co., Ltd., priority 1999, dated 2004)
